Assay [1] addresses CRBN-DDB1 protein complex (Homo sapiens, UniProt Q96SW2). As to the kind of experiment: Fluorescence polarization (FP) assay, displacement of Cy5-labelled thalidomide. The conditions noted are these: 25 nM CRBN-DDB1, 5 nM Cy5-labelled thalidomide, read-out: CRBN binding Ki. As for the experimental part:
CRBN-DDB1 protein complex was mixed with Cy5-labelled thalidomide and a compound to be tested (the “test compound”). […] The test solution was added to a 384-well assay plate.
The plate was spun-down (1 min, 1000 rpm, 22° C.) and then shaken using a VibroTurbulator for 10 min at room temperature (20-25° C.), with the frequency set to level 3. The assay plate with protein and the tracer was incubated for 60 min at room temperature (20-25° C.) prior to read-out with a plate reader.
The FP experiment was carried out with various concentrations of the test compounds in order to measure Ki values.

A further assay relates to SALL4. As to the kind of experiment: SALL4 degradation assay, Kelly cell line (western blot densitometry). The assay is classed as cell-based. The conditions noted are these: summary Table 10; Kelly cells, 24 H; 20 μM (some compounds 10 and 20 μM). The text has this: (§1) After primary and secondary Ab staining, the membranes were washed and signals developed. The densitometry analysis was implemented to obtain the numeric values used later in the protein level evaluation process.

A further assay has as its system CK1α. The assay is described as follows: CK1α degradation assay, Kelly cell line (western blot densitometry). The assay is classed as cell-based. The conditions noted are these: summary Table 10; Kelly cells, 24 H; 20 μM (some compounds 10 and 20 μM).
Description: as §1

The next assay concerns IKZF1. As to the kind of experiment: IKZF1 degradation assay, H929 cell line (western blot densitometry). The assay is classed as cell-based. As to conditions: H929 cells; for % of protein reduction based on densitometry values, IKZF 1 (24 H): summary Table 10, 20 μM (some compounds 10 and 20 μM).
Description: as §1

The next assay has as its system IKZF3. As to the kind of experiment: IKZF3 degradation assay, H929 cell line (western blot densitometry). In kind it is cell-based. The conditions noted are these: H929 cells.

CRBN-DDB1 protein complex, sequence (Q96SW2 whole entry): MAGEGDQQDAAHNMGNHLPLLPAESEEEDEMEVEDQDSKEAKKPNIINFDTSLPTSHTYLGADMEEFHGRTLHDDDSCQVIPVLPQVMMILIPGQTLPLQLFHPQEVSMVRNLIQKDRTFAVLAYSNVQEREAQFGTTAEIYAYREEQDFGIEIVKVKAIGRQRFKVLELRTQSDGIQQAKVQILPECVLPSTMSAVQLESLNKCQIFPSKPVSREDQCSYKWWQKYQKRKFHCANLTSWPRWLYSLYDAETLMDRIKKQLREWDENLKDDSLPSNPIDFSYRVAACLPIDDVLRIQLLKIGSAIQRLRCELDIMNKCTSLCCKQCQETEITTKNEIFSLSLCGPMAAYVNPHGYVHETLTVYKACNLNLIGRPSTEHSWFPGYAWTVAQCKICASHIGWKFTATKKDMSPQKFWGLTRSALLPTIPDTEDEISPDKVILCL
CRBN-DDB1 protein complex, sequence (Q16531 whole entry partner): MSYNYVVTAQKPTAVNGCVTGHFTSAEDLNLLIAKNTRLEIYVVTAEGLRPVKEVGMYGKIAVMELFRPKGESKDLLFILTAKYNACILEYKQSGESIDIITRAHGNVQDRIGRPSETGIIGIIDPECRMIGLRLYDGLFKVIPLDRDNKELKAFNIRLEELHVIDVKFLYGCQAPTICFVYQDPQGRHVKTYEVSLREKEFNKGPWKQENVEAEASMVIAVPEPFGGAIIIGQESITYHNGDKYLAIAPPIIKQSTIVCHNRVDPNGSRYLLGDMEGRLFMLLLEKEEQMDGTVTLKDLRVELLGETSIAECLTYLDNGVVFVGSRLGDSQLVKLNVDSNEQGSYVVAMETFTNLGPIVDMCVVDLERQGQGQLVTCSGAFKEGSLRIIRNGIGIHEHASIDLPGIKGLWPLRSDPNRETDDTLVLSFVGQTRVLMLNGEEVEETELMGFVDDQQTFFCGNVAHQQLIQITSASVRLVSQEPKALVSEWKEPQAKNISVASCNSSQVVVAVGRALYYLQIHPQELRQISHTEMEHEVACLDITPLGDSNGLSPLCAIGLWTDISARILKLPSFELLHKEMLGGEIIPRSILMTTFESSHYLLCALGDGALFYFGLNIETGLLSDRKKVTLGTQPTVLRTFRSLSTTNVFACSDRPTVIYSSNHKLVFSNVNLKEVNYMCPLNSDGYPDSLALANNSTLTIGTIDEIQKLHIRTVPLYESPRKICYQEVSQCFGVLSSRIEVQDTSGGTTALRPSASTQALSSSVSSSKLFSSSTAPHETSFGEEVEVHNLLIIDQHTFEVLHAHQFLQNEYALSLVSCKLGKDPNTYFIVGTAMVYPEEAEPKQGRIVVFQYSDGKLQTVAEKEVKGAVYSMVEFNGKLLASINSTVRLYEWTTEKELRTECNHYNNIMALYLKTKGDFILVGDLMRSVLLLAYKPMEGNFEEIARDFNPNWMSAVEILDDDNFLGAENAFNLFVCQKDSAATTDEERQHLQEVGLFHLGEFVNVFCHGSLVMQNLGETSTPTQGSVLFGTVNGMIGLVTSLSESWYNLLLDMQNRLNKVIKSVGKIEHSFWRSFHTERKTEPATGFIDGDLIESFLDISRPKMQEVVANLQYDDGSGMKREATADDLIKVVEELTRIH

In the case of `O=C1CCC(NC(=O)c2cccc3nnsc23)C(=O)N1` (stereo not drawn) [Compound 58], in assay [1], the Ki was in the range of 10 to 50 µM.
Still for that read-out and setting: with `O=C1CCC(NC(=O)c2cc(Br)cc3cn[nH]c23)C(=O)N1` (stereo not drawn) [Compound 47, 5-bromo-N-(2,6-dioxopiperidin-3-yl)-1H-indazole-7-carboxamide] the figure was 1 to 10 µM; with `Cc1nc2cccc(C(=O)NC3CCC(=O)NC3=O)c2o1` (stereo not drawn) [Compound 52, N-(2,6-dioxopiperidin-3-yl)-2-methylbenzo[d]oxazole-7-carboxamide], 1 to 10 µM.
In the case of `O=C1CCC(NC(=O)c2cccc3[nH]c(=O)[nH]c23)C(=O)N1` (stereo not drawn) [Compound 3, N-(2,6-dioxopiperidin-3-yl)-2-oxo-2,3-dihydro-1H-benzo[d]imidazole-4-carboxamide], the “% of protein reduction based on densitometry values, SALL4 (24 H)” value (shortened to “% of protein reduction based … SALL4 (24 H)”) in the assay with SALL4 is recorded as ≤25% (≤25% for 0-25% of SALL4 protein reduction). Besides, the “% of protein reduction based on densitometry values, CK1α (24 H)” value (“% of protein reduction based … CK1α (24 H)” for short) in the assay on CK1α is recorded as ≤25% (≤25% for 0-25% of CK1a protein reduction). Besides, in the assay with IKZF1, the “% of protein reduction based on densitometry values, IKZF 1 (24 H)” value (shortened to “% of protein reduction based … IKZF 1 (24 H)”) is listed as ≤25% (≤25% for 0-25% of IKZF1 protein reduction).
As for `O=C1CCC(NC(=O)c2csc3[nH]cnc23)C(=O)N1` (stereo not drawn) [Compound 60, N-(2,6-dioxopiperidin-3-yl)-1H-thieno[2,3-d]imidazole-6-carboxamide], the Ki in assay [1] lay within 1 to 10 µM.
Still for that read-out and setting: the result for `O=C1CCC(NC(=O)c2nccc3[nH]cnc23)C(=O)N1` (stereo not drawn) [Compound 11, N-(2,6-dioxopiperidin-3-yl)-1H-imidazo[4,5-c]pyridine-4-carboxamide] reads 1 to 10 µM; that for `Nc1ccc2[nH]c(C(F)(F)F)nc2c1C(=O)NC1CCC(=O)NC1=O` (stereo not drawn) [Compound 26, 6-amino-N-(2,6-dioxopiperidin-3-yl)-2-(trifluoromethyl)-1H-1,3-benzodiazole-7-carboxamide], 1 to 10 µM; that for `O=C1CCC(NC(=O)c2cccc3c(-c4cccs4)n[nH]c23)C(=O)N1` (stereo not drawn) [Compound 43, N-(2,6-dioxopiperidin-3-yl)-3-(thiophen-2-yl)-1H-indazole-7-carboxamide], 1 to 10 µM.
On the same count and under the same terms, the result for `Cc1cc2cccc(C(=O)NC3CCC(=O)NC3=O)c2s1` (stereo not drawn) [Compound 41, N-(2,6-dioxopiperidin-3-yl)-2-methylbenzo[b]thiophene-7-carboxamide] reads 1 to 10 µM.
Take `O=C1CCC(NC(=O)c2cccc3[nH]nnc23)C(=O)N1` (stereo not drawn) [Compound 55, N-(2,6-dioxopiperidin-3-yl)-1H-benzo[d][1,2,3]triazole-4-carboxamide]: the Ki in assay [1] fell in the range of 1 to 10 µM. Moreover, in the assay with IKZF3 (10 μM, 24 h), the “% of IKZF3 protein reduction based on densitometry values, IKZF3 Band I” value was ≤25% (≤25% for 0-25% of IKZF3 protein reduction) and the “% of IKZF3 protein reduction based on densitometry values, IKZF3 Band II” value is given as ≤25% (≤25% for 0-25% of IKZF3 protein reduction). Besides, in the assay on IKZF3 (20 μM, 24 h), the “% of IKZF3 protein reduction based on densitometry values, IKZF3 Band I” value is recorded as ≤25% (≤25% for 0-25% of IKZF3 protein reduction) and the “% of IKZF3 protein reduction based on densitometry values, IKZF3 Band II” value is recorded as ≤25% (≤25% for 0-25% of IKZF3 protein reduction).
`O=C1CCC(NC(=O)c2ccnc3scnc23)C(=O)N1` (stereo not drawn) [Compound 54, N-(2,6-dioxopiperidin-3-yl)thiazolo[5,4-b]pyridine-7-carboxamide]: the Ki in assay [1] fell in the range of 1 to 10 µM.
Still for that read-out and setting: the result for `Nc1ccc2cn[nH]c2c1C(=O)NC1CCC(=O)NC1=O` (stereo not drawn) [Compound 48, 6-amino-N-(2,6-dioxopiperidin-3-yl)-1H-indazole-7-carboxamide] reads 1 to 10 µM.
As to `O=C1CCC(NC(=O)c2cccc3c(Br)n[nH]c23)C(=O)N1` (stereo not drawn) [Compound 42, 3-bromo-N-(2,6-dioxopiperidin-3-yl)-1H-indazole-7-carboxamide], the inhibition constant Ki in assay [1] lay within 10 to 50 µM.
As for `Cc1sc2c(c1C)C(c1ccc(Cl)cc1)=N[C@@H](CC(=O)Nc1ccc(OCCOCCOCCOCCNc3cccc4c3C(=O)N(C3CCC(=O)NC3=O)C4=O)cc1)c1nnc(C)n1-2` (stereo partly drawn) [ARV-825, reference compound], the “% of IKZF1 α protein reduction based on densitometry values” with IKZF1 (0.1 μM, 6 h) was >25% (>25% for 26-74% of IKZF1 protein reduction); in the assay on IKZF1 (1 μM, 6 h) it was >25% (>25% for 26-74% of IKZF1 protein reduction); in the assay with IKZF1 (10 μM, 6 h) it was >25% (>25% for 26-74% of IKZF1 protein reduction). This compound registered an IKZF1 degradation with IKZF1 (6 h, 0.1-10 μM) of about 50%. The “% of IKZF3 protein reduction based on densitometry values, IKZF3 Band I” value in the assay on IKZF3 (0.1 μM, 6 h) is on record as >25% (>25% for 26-74% of IKZF3 protein reduction); in the assay on IKZF3 (1 μM, 6 h), >25% (>25% for 26-74% of IKZF3 protein reduction); with IKZF3 (10 μM, 6 h), >25% (>25% for 26-74% of IKZF3 protein reduction). Moreover, the “% of IKZF3 protein reduction based on densitometry values, IKZF3 Band II” value is >25% (>25% for 26-74% of IKZF3 protein reduction) in the assay on IKZF3 (0.1 μM, 6 h); >25% (>25% for 26-74% of IKZF3 protein reduction) in the assay on IKZF3 (1 μM, 6 h); >25% (>25% for 26-74% of IKZF3 protein reduction) with IKZF3 (10 μM, 6 h). The compound further gave an IKZF3 degradation in the assay with IKZF3 (6 h, 0.1-10 μM) of about 60%.
For `Cc1nc2c(C(=O)NC3CCCC(=O)NC3=O)cccc2[nH]1` (stereo not drawn) [Compound 20, N-(2,7-dioxoazepan-3-yl)-2-methyl-1H-benzo[d]imidazole-4-carboxamide], in the assay with SALL4, the “% of protein reduction based … SALL4 (24 H)” value is recorded as ≤25% (≤25% for 0-25% of SALL4 protein reduction). Further, in the assay on CK1α, the “% of protein reduction based … CK1α (24 H)” value is ≤25% (≤25% for 0-25% of CK1a protein reduction). Moreover, the “% of protein reduction based … IKZF 1 (24 H)” value in the assay on IKZF1 is ≤25% (≤25% for 0-25% of IKZF1 protein reduction).
`N#Cc1nc2c(C(=O)NC3CCC(=O)NC3=O)cccc2[nH]1` (stereo not drawn) [Compound 22, 2-cyano-N-(2,6-dioxopiperidin-3-yl)-1H-benzo[d]imidazole-4-carboxamide]: the inhibition constant Ki in assay [1] is under 1 µM.
Same read-out and setting: the result for `Cc1sc2c(c1C)C(c1ccc(Cl)cc1)=N[C@@H](CC(=O)Nc1ccc(OCCOCCOCCNC(=O)CCc3nc4c(C(=O)NC5CCC(=O)NC5=O)cccc4[nH]3)cc1)c1nnc(C)n1-2` (stereo partly drawn) [Compound 63, 2-(3-((2-(2-(2-(4-(2-((S)-4-(4-chlorophenyl)-2,3,9-trimethyl-6H-thieno[3,2-f][1,2,4]triazolo[4,3-a][1,4]diazepin-6-yl)acetamido)phenoxy)ethoxy)ethoxy)ethyl)amino)-3-oxopropyl)-N-(2,6-dioxopiperidin-3-yl)-1H-benzo[d]imidazole-7-carboxamide] reads 1 to 10 µM.
`CCCCCC(=O)Nc1cc(C(=O)NC2CCC(=O)NC2=O)c2c(c1)ncn2C` (stereo not drawn) [Compound 6, N-(2,6-dioxopiperidin-3-yl)-5-hexanamido-1-methyl-1H-benzo[d]imidazole-7-carboxamide]: in the assay with SALL4, the “% of protein reduction based … SALL4 (24 H)” value was ≤25% (≤25% for 0-25% of SALL4 protein reduction). Moreover, in the assay on CK1α, the “% of protein reduction based … CK1α (24 H)” value was ≤25% (≤25% for 0-25% of CK1a protein reduction). Also, in the assay with IKZF1, the “% of protein reduction based … IKZF 1 (24 H)” value is reported as ≤25% (≤25% for 0-25% of IKZF1 protein reduction).
`O=C1CCC(NC(=O)c2cccc3nc[nH]c23)C(=O)N1` (stereo not drawn) [Compound 2, N-(2,6-dioxopiperidin-3-yl)-1H-1,3-benzodiazole-7-carboxamide]: the Ki in assay [1] was in the range of 1 to 10 µM.
As for `Cc1nc2c(C(=O)NC3CCC(=O)NC3=O)cccc2o1` (stereo not drawn) [Compound 51, N-(2,6-dioxopiperidin-3-yl)-2-methylbenzo[d]oxazole-4-carboxamide], in assay [1], the Ki was in the range of 1 to 10 µM.
The same measure, in the same setting: the result for `O=C1CCC(NC(=O)c2cccc3[nH]c(Cl)nc23)C(=O)N1` (stereo not drawn) [Compound 12, 2-chloro-N-(2,6-dioxopiperidin-3-yl)-1H-benzo[d]imidazole-4-carboxamide] reads under 1 µM; that for `Cc1nc2cccc(C(=O)NC3CCC(=O)NC3=O)c2s1` (stereo not drawn) [Compound 53, N-(2,6-dioxopiperidin-3-yl)-2-methylbenzo[d]thiazole-7-carboxamide], 1 to 10 µM.
Still for that read-out and setting: with `Cc1nc2c(C(=O)NC3CCC(=O)NC3=O)c(OCC(=O)NCCCCCCCCNC(=O)C[C@@H]3N=C(c4ccc(Cl)cc4)c4c(sc(C)c4C)-n4c(C)nnc43)ccc2[nH]1` (stereo partly drawn) [Compound 67, 6-(2-((8-(2-((S)-4-(4-chlorophenyl)-2,3,9-trimethyl-6H-thieno[3,2-f][1,2,4]triazolo[4,3-a][1,4]diazepin-6-yl)acetamido)octyl)amino)-2-oxoethoxy)-N-(2,6-dioxopiperidin-3-yl)-2-methyl-1H-benzo[d]imidazole-7-carboxamide] the figure was 1 to 10 µM; with `O=C1CCC(NC(=O)c2ccnc3[nH]cnc23)C(=O)N1` (stereo not drawn) [Compound 9, N-(2,6-dioxopiperidin-3-yl)-3H-imidazo[4,5-b]pyridine-7-carboxamide], 1 to 10 µM; with `O=C1CCC(NC(=O)c2cncc3[nH]cnc23)C(=O)N1` (stereo not drawn) [Compound 10, N-(2,6-dioxopiperidin-3-yl)-3H-imidazo[4,5-c]pyridine-7-carboxamide], 1 to 10 µM.

Source of the values: patent US20240343706A1, “PIPERIDINE-2,6-DIONE DERIVATIVES WHICH BIND TO CEREBLON, AND METHODS OF USE THEREOF” (Captor Therapeutics S.A., priority 2019, published 2024).
